{"source": "paper PMC5509375", "about": "“Oxidative stress induced in E. coli by the human antimicrobial peptide LL-37” (PLoS Pathogens, 2017)", "key": {"E. coli MG1655 [1]": {"test_system": "E. coli MG1655", "assay": "MIC assay, anaerobic fermentation (oxygen scavenged with PCA/PCD)", "assay_type": "cell-based", "settings": "E. coli MG1655, EZRDM, 30°C, 6 hr, PCA 10 mM / PCD 100 nM", "experimental": "(§1) We have measured MICs in aerobic and anaerobic fermentation conditions using a series of two-fold dilutions for the four natural AMPs in the same rich, chemically defined EZRDM medium at 30°C (Table 1). The MIC in anaerobic fermentation conditions is 4-fold higher for LL-37 and 8-fold higher for melittin. […] For cecropin A and for indolicidin, the MIC is the same in aerobic and fermentation conditions. Evidently the activity against E. coli of some, but not all, natural AMPs is enhanced by the presence of oxygen. For LL-37, the primary focus of this study, we also measured the MIC in conditions enabling anaerobic respiration (no oxygen, but supplemented with 10 mM KNO3; Table 2).\nAnaerobic MIC values (Table 1) were measured on a 96-well plate that was sealed with plastic wrap. Cells were incubated in EZRDM containing protocatechuic acid (PCA) at 10 mM and protocatechuate 3,4-dioxygenase (PCD) at 100 nM to scavenge oxygen. The plate was incubated at 30°C for 6 hr, followed by OD measurements."}, "E. coli MG1655 [2]": {"test_system": "E. coli MG1655", "assay": "MIC assay, broth microdilution, aerobic growth", "assay_type": "cell-based", "settings": "E. coli MG1655, EZRDM, 30°C, 6 hr, two-fold serial dilutions, reproducible to the same factor of two", "experimental": "as §1\nThe aerobic MIC values for the various AMPs (Table 1) were determined using the broth microdilution method as previously described. Two-fold serial dilutions of LL-37 in 1× EZRDM were performed in separate rows of a polystyrene 96-well plate, with each plate containing an inoculum of E. coli MG1655. The inoculum was a 1:20 dilution from a bulk culture at midlog phase (OD600 = 0.5) grown at 30°C. The plate was incubated at 30°C and shaken at 200 rpm in a Lab-Line Orbital Environ Shaker (model 3527) for 6 hr. The MIC value was taken as the lowest concentration for which no growth was discernible (<0.05 OD) after 6 hr."}, "E. coli MG1655 [3]": {"test_system": "E. coli MG1655", "set-up": "method as in 2 sources, one per row (each row's own in cited_ref): ref 20 = [20]; PMID 25561551; doi:10.1073/pnas.1417703112; 20 Choi H , Yang Z , Weisshaar JC . Single-cell, real-time detection of oxidative stress induced in Escherichia coli by the antimicrobial peptide CM15 . Proc Natl Acad Sci U S A . 2015; 112 ( 3 ): E3 ||| ref 22 = [22]; PMID 26493221; doi:10.1021/acschembio.5b00547; 22 Choi H , Chakraborty S , Liu R , Gellman SH , Weisshaar JC . Single-Cell, Time-Resolved Antimicrobial Effects of a Highly Cationic, Random Nylon-3 Copolymer on Live Escherichia coli . ACS Chem Biol", "settings": "cited from earlier work"}, "E. coli MG1655 [4]": {"test_system": "E. coli MG1655", "settings": "cited from earlier work", "experimental": "Table 1 Antimicrobial peptides and their MICs for E. coli MG1655 in aerobic growth vs anaerobic fermentation in EZRDM at 30°C. | column: MIC (μM) ^1 / Aerobic || Additional evidence that the onset of strong CellROX* fluorescence coincides with entry of LL-37 into the periplasm comes from two-color imaging experiments using CellROX Green and a red fluorescent variant of the peptide, Rh-LL-37. […] Under aerobic growth conditions, at t = 0 we flowed 25 μM CellROX Green plus 8 μM Rh-LL-37 across plated E. coli cells. As before, wea ... || To test for the importance of LL-37 stereochemistry on the magnitude of oxidative effects, we repeated the CellROX* assay in aerobic conditions using 4 μM of the all-D stereoisomer of LL-37. […] In addition, our earlier work found the same MIC for D- and L-LL-37 [19]."}, "MG1655 E. coli": {"test_system": "MG1655 E. coli", "assay_type": "cell-based", "settings": "8 μM Rh-LL-37 + 25 μM CellROX Green, aerobic, 59 cells from three repeats"}}, "note": "Read-outs that look alike come from different tables or passages of the source. Ends that are not written are not given here."}
{"compound": "CC[C@H](C)[C@H](N)C(=O)N[C@@H](CC(C)C)C(=O)N1CCC[C@H]1C(=O)N[C@@H](Cc1c[nH]c2ccccc12)C(=O)N[C@@H](CCCCN)C(=O)N[C@@H](Cc1c[nH]c2ccccc12)C(=O)N1CCC[C@H]1C(=O)N[C@@H](Cc1c[nH]c2ccccc12)C(=O)N[C@@H](Cc1c[nH]c2ccccc12)C(=O)N1CCC[C@H]1C(=O)N[C@@H](Cc1c[nH]c2ccccc12)C(=O)N[C@@H](CCCNC(=N)N)C(=O)N[C@@H](CCCNC(=N)N)C(N)=O", "note": "[Indolicidin]", "values": [{"measurement": "MIC (μM) Fermentation", "setting": "E. coli MG1655 [1]", "value": 32, "unit": "µM"}, {"measurement": "MIC (μM) Aerobic", "setting": "E. coli MG1655 [2]", "value": 32, "unit": "µM"}]}
{"compound": "CM15", "values": [{"measurement": "MIC (μM) Fermentation", "setting": "E. coli MG1655 [3]; E. coli MG1655, EZRDM, 30°C, anaerobic fermentation, CM15 from earlier study", "value": 100, "unit": "µM"}, {"measurement": "MIC in anaerobic (fermentation) relative to aerobic growth", "setting": "E. coli MG1655 [3]; E. coli, fold higher in anaerobic", "value": 20, "unit": "fold"}, {"measurement": "MIC (μM) Aerobic", "setting": "E. coli MG1655 [4]; E. coli MG1655, EZRDM, 30°C, aerobic, CM15 from earlier study", "value": 5, "unit": "µM"}]}
{"compound": "KWKLFKKIEKVGQNIRDGIIKAGPAVAVVGQATQIAK-NH2 [Cecropin A]", "values": [{"measurement": "MIC (μM) Fermentation", "setting": "E. coli MG1655 [1]", "value": 0.9, "unit": "µM"}, {"measurement": "MIC (μM) Aerobic", "setting": "E. coli MG1655 [2]", "value": 0.9, "unit": "µM"}]}
{"compound": "Rhodamine B-LL-37 [Rh-LL-37]", "values": [{"measurement": "Timing of CellROX* fluorescence relative to periplasmic Rh-LL-37 fluorescence", "setting": "MG1655 E. coli", "value": "rise on the same time scale"}, {"measurement": "MIC compared with unlabeled L-LL-37", "setting": "E. coli MG1655 [4]; MG1655 E. coli", "value": "the same MIC"}]}
